In BindingDB's records for doi:10.1016/j.bmcl.2012.07.045 (Rhône-Poulenc Rorer, 2012):

Target: Tyrosine-protein kinase SYK (Homo sapiens) (UniProt P43405)
Test: Inhibition of human recombinant full-length Syk using poly-GT as substrate after 40 mins by radioactive filtration assay

| Structure (SMILES) | IC50 [nM] |
| --- | --- |
| O=C(Nc1cc(Nc2cnccn2)nc(-c2ccnc(N3CCNCC3)c2)c1)c1cncnc1 | 9 |
| c1cc(Nc2cnccn2)nc(-c2ccnc(N3CCNCC3)c2)c1 | 62 |
| CNc1cc(Nc2cnccn2)nc(-c2ccnc(N3CCNCC3)c2)c1 | 4 |
| O=C(Cc1cccnc1)Nc1cc(Nc2cnccn2)nc(-c2ccnc(N3CCNCC3)c2)c1 | 4 |
| Nc1cc(Nc2cnccn2)nc(-c2ccnc(N3CCNCC3)c2)c1 | 4 |
| Oc1ccc(CNc2cc(Nc3cnccn3)nc(-c3ccnc(N4CCNCC4)c3)c2)cc1 | 8 |
| Cc1ccnc(Nc2cccc(-c3ccnc(N4CCCNCC4)c3)n2)c1 | 27 |
| O=C(O)c1ccc(C(=O)Nc2cc(Nc3cnccn3)nc(-c3ccnc(N4CCNCC4)c3)c2)cc1 | 8 |
| O=C(Nc1cc(Nc2cnccn2)nc(-c2ccnc(N3CCNCC3)c2)c1)c1cccnc1 | 6 |
| Cc1cc(C(=O)Nc2cc(Nc3cnccn3)nc(-c3ccnc(N4CCNCC4)c3)c2)n(C)n1 | 7 |
| O=C(Nc1cc(Nc2cnccn2)nc(-c2ccnc(N3CCNCC3)c2)c1)C1CCNCC1 | 4 |
| CC(=O)N1CCC(C(=O)Nc2cc(Nc3cnccn3)nc(-c3ccnc(N4CCNCC4)c3)c2)CC1 | 5 |
| c1cc(-c2cccc(Nc3cnccn3)n2)cc(N2CCNCC2)c1 | 43 |
| O=C(Nc1cc(Nc2cnccn2)nc(-c2ccnc(N3CCNCC3)c2)c1)c1ccc(C(=O)O)nc1 | 10 |
| O=C(Nc1cc(Nc2cnccn2)nc(-c2ccnc(N3CCNCC3)c2)c1)c1ccccc1 | 28 |
| FC(F)(F)c1ccnc(Nc2cccc(-c3ccnc(N4CCNCC4)c3)n2)c1 | 1.8 |

Next, values leading:

| IC50 [nM] | Structure (SMILES) |
| --- | --- |
| 1670 | Cc1ccnc(Nc2cccc(-c3cccc(CN)c3)n2)c1 |
| 2700 | Cc1ccnc(Nc2cccc(-c3cccnc3)n2)c1 |
| 91 | Cc1ccnc(Nc2cccc(-c3cccc(NCCN)c3)n2)c1 |
| 114 | Cc1ccnc(Nc2cccc(-c3ccnc(N4CCC(N)CC4)c3)n2)c1 |
| 14 | Cc1ccnc(Nc2cccc(-c3ccnc(N4CCNCC4)c3)n2)c1 |
| 200 | Cc1ccnc(Nc2cccc(-c3ccnc(NCCN)c3)n2)c1 |
| 160 | Cc1ccnc(Nc2cccc(-c3cccc(CCN)c3)n2)c1 |
| 3240 | Cc1ccnc(Nc2cccc(-c3cccc(N)c3)n2)c1 |
| 450 | Cc1ccnc(Nc2cccc(-c3ccnc(N4CCC(N)C4)c3)n2)c1 (configuration not stated) |
| 1870 | Cc1ccnc(Nc2cccc(-c3ccnc(NCCO)c3)n2)c1 |
| 528 | Cc1ccnc(Nc2cccc(-c3ccnc(NCCCN)c3)n2)c1 |
